The source of these data is publication PMC9616048, “Thermal proteome profiling reveals Haemonchus orphan protein HCO_011565 as a target of the nematocidal small molecule UMW-868” (Frontiers in Pharmacology, 2022).

Data set [1] relates to H. contortus fourth-stage larvae (L4s) development. In words: Dose-response evaluation, L4 development. Format: cell-based, Haemonchus contortus. The settings on record: Haemonchus contortus; 168 h, analog series; read-out: L4 development inhibition (IC50 in µM). The procedure:
(§1) These evaluations were carried out to estimate the half-maximal inhibitory concentrations (IC50 values) for hit compounds against H. contortus xL3s. With reference to the two positive-control compounds (monepantel and moxidectin), IC50 values for compounds were estimated ([Preston et al., 2015]; [Taki et al., 2021a]) using two-fold serial dilution (in LB*; 9 points from 50 μM to 0.2 µM) in 96-well plates (cat. no. 3596; Corning) with larvae at a density of 300 H. contortus xL3s in 100 µl per well. Plates containing H. contortus xL3s were incubated at 38°C, 10% (v/v) CO2 and >90% relative humidity.
The motility of H. contortus xL3s and L4 development were measured following 168 h of incubation with compound ([Taki et al., 2021a]). Compound concentrations were log10-transformed and fitted using a variable slope four-parameter equation, constraining the highest value to 100% employing a least squares (ordinary) fit model using GraphPad Prism software (v.9.1.2). Compounds were tested by three independent experiments in triplicate. A one-way analysis of variance (ANOVA) with a Tukey’s multiple comparison test or an unpaired t-test was used to establish statistically significant differences in larval motility or development.

The subject of the next data set is eggs of H. contortus. In words: Egg hatch assay. The conditions noted are these: Haemonchus contortus, 48 h; read-out: Egg hatch inhibition (IC50 in µM). The format is cell-based. As to the method: Compounds were also assessed for their effect on the hatching of eggs of H. contortus in vitro. To do this, eggs were isolated from the faeces from sheep with patent (30 day-) H. contortus infection by sucrose flotation ([Mes et al., 2007]). Eggs were suspended in H2O at a concentration of one egg per µl. The eggs were dispensed into wells (in triplicate; 100 eggs per well) and incubated with two-fold serial dilutions (9 points from 50 μM to 0.2 µM in H2O) of individual test or control compounds for 48 h at 27°C and >90% relative humidity; wells with no compound were also included. The numbers (percentages) of eggs from which first-stage larvae (L1s) hatched were counted using a light microscope (M80, Leica) at a 40-times magnification. With reference to positive-control compounds (i.e., monepantel and moxidectin), IC50 values of compounds were calculated.

Data set [2] is described as follows: Cellular toxicity in HepG2 cells (crystal violet). The format is cell-based, human. The settings on record: human, HepG2 human hepatoma cells; HepG2, 48 h; read-out: Cytotoxicity (48 h) CC50. As to the method:
(§2) The toxicities of compounds on cell and mitochondria were assessed to estimate their half-maximal cytotoxic concentrations (CC50) and half-maximal mitotoxic concentrations (MC50), respectively. HepG2 human hepatoma cells were seeded into wells of a 96-well plate at a density of 5.5 × 10^4 cells per well in 80 µl of Dulbecco’s modified eagle medium (DMEM; with GlutaMax™ cat. no. 10566016 or 4 mM L-glutamine cat. no. 11966025; Thermo Fisher Scientific), supplemented with 25 mM D-glucose (cytotoxicity) or D-galactose (mitotoxicity), 10% (v/v) inactivated foetal bovine serum (iFBS), 100 IU/ml of penicillin, 100 μg/ml of streptomycin and 0.25 μg/ml of amphotericin B (designated DMEM*). Cells were allowed to adhere for 16 h at 37°C and 5% (v/v) CO2 at > 90% relative humidity, then, incubated for 48 h with individual, serially-diluted compounds (two-fold serial dilution in DMEM*; […]) in a final volume of 100 µl. For the assessment of toxicity on mitochondria, cells were starved of serum (DMEM* without iFBS) for 4 h prior to the 48 h-incubation with compounds ([Swiss and Will, 2011]; [Kamalian et al., 2015]). Two positive control compounds, doxorubicin (cytotoxic control) and M-666 (mitotoxic control) were each added to three individual wells in each 96-well plate at a single concentration of 10 µM. DMEM* + 0.25% (v/v) DMSO was added to 12 wells in each plate as negative controls. Monepantel and moxidectin were also serially diluted — prepared in the same manner as test compounds — and used as (“non-toxic”) reference compounds. After 48 h of incubation, cell viability was determined by the crystal violet staining method ([Śliwka et al., 2016]). The absorbance (595 nm) of treated cells was normalised with reference to the negative control (100% viability). To determine the CC50 and MC50 values, compound concentrations were log10-transformed, baseline-corrected using a respective positive control (doxorubicin or M-666) and fitted using a variable slope four-parameter equation with a least squares (ordinary) fit model using GraphPad Prism software (v.9.1.2). Compounds and controls were tested in triplicate.

Data set [3] deals with mitochondria of HepG2 human hepatoma cells. Kind of data set: Mitochondrial toxicity in HepG2 cells (galactose medium). Format: cell-based. The settings on record: HepG2, 48 h. The procedure: as §2
In a further data set the test system is H. contortus xL3s. Kind of data set: Dose-response evaluation, xL3 motility. Format: cell-based. The settings on record: Haemonchus contortus, 168 h, analog series; read-out: xL3 motility reduction (IC50 in µM). The procedure:
as §1
Compound concentrations were log10-transformed and fitted using a variable slope four-parameter equation, constraining the highest value to 100% employing a least squares (ordinary) fit model using GraphPad Prism software (v.9.1.2). Compounds were tested by three independent experiments in triplicate. A one-way analysis of variance (ANOVA) with a Tukey’s multiple comparison test or an unpaired t-test was used to establish statistically significant differences in larval motility or development.

Data set [4] deals with H. contortus xL3 to L4 development. In words: High throughput screen, larval development and phenotype at 168 h. Format: cell-based, Haemonchus contortus. The settings on record: for Abnormal phenotype detected at 168 h: 20 µM; for inhibition at 20 µM: Haemonchus contortus, development to L4. The procedure: Following the measurement of xL3 motility, plates were incubated again for 78 h (i.e., a total of 168 h) under the same conditions. Thereafter, 40 µl of 1% (v/v) iodine were added to individual wells, and worms examined using a light microscope (M80, Leica) at 60-times magnification to assess larval development, based on the presence/absence of a well-developed pharynx ([Sommerville, 1966]), and/or phenotypic alterations with respect to untreated xL3s.

For data set [5], the system named is exsheathed third-stage larvae (xL3s) of H. contortus. In words: High throughput screen, xL3 motility (infrared light beam-interference). The format is cell-based. The settings on record: Haemonchus contortus, 90 h, read-out: Motility reduction at 90 h (%). The procedure: An established platform was used for compound screening ([Taki et al., 2021a]). Using a semi-automated liquid handling robot (VIAFLO ASSIST PLUS, Integra Biosciences), compounds were individually diluted to […] in LB* containing 0.2% (v/v) DMSO and then dispensed in 20 µl into the wells of sterile 384-well flat bottom microtitre plates (cat. no. 3680; Corning); 320 compounds were arrayed on each plate, with 16 wells being negative controls (with LB* + 0.2% DMSO) and four wells containing each monepantel (Zolvix; Elanco), moxidectin (Cydectin; Virbac), monepantel + abamectin (Zolvix Plus; Elanco) and compound MIPS-0018666 (abbreviated here as M-666) ([Le et al., 2018]) as positive controls (20 µM). Following the dilution and dispensing of compounds into plates, 80 H. contortus xL3s in 20 μl of LB* were transferred to individual wells; after this step, the final concentrations were 20 µM of test- or positive-control compound, and 0.2% of DMSO. During dispensing, xL3s were maintained in a homogenous suspension using a constant stream of bubbles produced employing an aquarium pump (H2Pro). Plates containing H. contortus xL3s were incubated at 38 °C, 10% (v/v) CO2 and >90% relative humidity.
After 90 h of incubation with compounds (20 μM), H. contortus xL3s motility was measured for 15 min in individual wells of each plate by infrared light beam-interference ([Simonetta and Golombek, 2007]) using a WMicroTracker ONE instrument (Phylumtech). Raw data captured were normalised against measurements obtained for the positive (monepantel) and negative (LB* + 0.2% DMSO) controls to remove plate-to-plate variation by calculating the percentage of motility using the program GraphPad Prism (v.9.1.2; GraphPad Software). A compound was considered active (“hit”) if it reduced larval motility by ≥ 70%. To continually assess the performance of the screening assay, the Z′-factor ([Zhang et al., 1999]) was calculated (using data for the DMSO and the M-666 controls) for individual plates (n = 43) and was consistently ≥0.7; reliable assays achieve a Z′-factor of between 0.5 and 1. The signal to background (S/B) ratio (for the same controls) ([Sui and Wu, 2007]) was consistently >200.

Where only a bound is given, the exact number is not on record here.

Regarding `CCCc1ccc(-c2nc(-c3ccc(OC)cc3)no2)cc1` [Compound A-6318, 3-(4-Methoxyphenyl)-5-(4-propylphenyl)-1,2,4-oxadiazole], the IC50 in data set [1] is 1.6 µM; with eggs of H. contortus, 38 µM; in the data set on H. contortus xL3s, 1.4 µM. Moreover, the CC50 at 48 h in data set [2] is greater than 50 µM. The “Mitotoxicity (48 h) MC50” value in data set [3] is 48.2 µM.
For `FC(F)(F)Oc1ccc(-c2nc(-c3cccs3)no2)cc1` [Compound A-6316, 3-(Thiophen-2-yl)-5-(4-(trifluoromethoxy)phenyl)-1,2,4-oxadiazole], in that order: greater than 50 µM, greater than 50 µM, 9.8 µM, greater than 50 µM and greater than 50.0 µM.
As for `c1ccc(-c2noc(-c3cccs3)n2)cc1` [Tioxazafen, 3-Phenyl-5-(thiophen-2-yl)-1,2,4-oxadiazole, reference compound], the IC50 (in data set [1]; with eggs of H. contortus; in the data set on H. contortus xL3s) was greater than 50 µM in each case. For the same compound, the CC50 at 48 h in data set [2] is greater than 50 µM. For the same compound, the “Mitotoxicity (48 h) MC50” value in data set [3] is greater than 50.0 µM.
With `CCCc1ccc(-c2nc(-c3ccc(C(F)(F)F)cc3)no2)cc1` [Compound A-6501], the IC50 was 6.3 µM in data set [1], greater than 50 µM in the data set with eggs of H. contortus and 1.6 µM with H. contortus xL3s. For the same compound, in data set [2], the CC50 at 48 h was greater than 50 µM. Further, the “Mitotoxicity (48 h) MC50” value in data set [3] is greater than 50.0 µM.
As for `c1ccc(-c2nc(-c3cccs3)no2)cc1` [Compound A-4347, 5-Phenyl-3-(thiophen-2-yl)-1,2,4-oxadiazole], the 50% inhibitory concentration (IC50) (in data set [1]; with eggs of H. contortus; in the data set on H. contortus xL3s) was greater than 50 µM in each case. In data set [2], the CC50 at 48 h was greater than 50 µM. In addition, the “Mitotoxicity (48 h) MC50” value in data set [3] was greater than 50.0 µM.
Consider `CCCc1ccc(-c2nc(-c3ccc(C)cc3)no2)cc1` [Compound A-3136], for which the values for the half-inhibitory concentration (IC50) (in data set [1]; in the data set with eggs of H. contortus; in the data set with H. contortus xL3s) were 12.5 µM, 7.5 µM and 4.8 µM, respectively. Moreover, in data set [2], the CC50 at 48 h is greater than 50 µM. The “Mitotoxicity (48 h) MC50” value in data set [3] is greater than 50.0 µM.
In the case of `C(#Cc1ccc(-c2cc[nH]n2)s1)c1ccccc1` [MBHF-hit2, 3-[5-(2-phenyleth-1-ynyl)-2-thienyl]-1H-pyrazole], in data set [4], the “Abnormal phenotype detected at 168 h” value is “Cur, Evi” and the inhibition at 20 µM was found to be 100%. The inhibition at 20 µM in data set [5] was determined as 98.4%.
In the case of `CC(=NOc1nc(-c2ccccc2)ns1)c1cccs1` [MBHF-hit3, 1-(2-thienyl)-1-ethanone O-(3-phenyl-1,2,4-thiadiazol-5-yl)oxime], in data set [4], the “Abnormal phenotype detected at 168 h” value is given as “Cur, Evi” and the inhibition at 20 µM was less than 80%. Besides, the inhibition at 20 µM in data set [5] stood at 96.4%.
On to `O=S1(=O)CC=C(Cl)C1` [MBHF-hit30, 3-chloro-2,5-dihydro-1H-1lambda~6~-thiophene-1,1-dione], for which the inhibition at 20 µM in data set [4] is less than 80%; in data set [5], 71.5%.
In the case of `CSC(=NS(=O)(=O)c1ccc(C)cc1)N(C)C` [MBHF-hit34, N1-[(dimethylamino)(methylthio)methylidene]-4-methylbenzene-1-sulfonamide], the inhibition at 20 µM in data set [4] was less than 80%; in data set [5], 70.3%.
As to `O=C1c2ccccc2C(=O)N1CCSCc1cccc(C(F)(F)F)c1` [MBHF-hit21, 2-(2-{[3-(trifluoromethyl)benzyl]thio}ethyl)-1H-isoindole-1,3(2H)-dione], in data set [4], the “Abnormal phenotype detected at 168 h” value is “Cur, Evi” and the inhibition at 20 µM was 100%. In addition, the inhibition at 20 µM in data set [5] was determined as 76.5%.
Regarding `CC12NC(=O)NC1(C)NC(=O)N2` (stereo not shown) [MBHF-hit22, 3a,6a-dimethylperhydroimidazo[4,5-d]imidazole-2,5-dione], the inhibition at 20 µM in data set [4] was less than 80%; in data set [5], 76.3%.
Regarding `N#CC(=NNc1ccc(Cl)cc1Cl)C(=O)c1ccc(Cl)cc1` [MBHF-hit5, 3-(4-chlorophenyl)-2-[2-(2,4-dichlorophenyl)hydrazono]-3-oxopropanenitrile], the inhibition at 20 µM turned out to be 100% in data set [4] and 95.2% in data set [5].
For `CCCCOc1ccc(-c2ccc(C#N)cc2)cc1` [MBHF-hit4, 4'-butoxy[1,1'-biphenyl]-4-carbonitrile], in data set [4], the “Abnormal phenotype detected at 168 h” value is “Cur, Evi”. The inhibition at 20 µM in data set [4] turned out to be 100%; in data set [5], 95.6%.
For the compound `CC(C)c1cc(Br)c(NC(=O)NCc2ccco2)c(Br)c1` [MBHF-hit23, N-(2,6-dibromo-4-isopropylphenyl)-N'-(2-furylmethyl)urea], the inhibition at 20 µM in data set [4] is less than 80%; in data set [5] it was 74.8%.
